Data taken from US20100056524A1, “Compound” (priority 2008, published 2010).
Where a name gives a salt, the structure may show the parent alone. Read-outs that look alike come from different tables or passages of the source.

Experiments:
BRSK2 = target: T1, BRSK2 (Homo sapiens, UniProt Q8IWQ3); assay: BRSK2 protein kinase assay; assay type: biochemical; settings: for remaining activity at 10 µM: 10 μM compound; for residual kinase activity BRSK2: 1 μm compound; for remaining activity at 1 µM: 1 μM compound
T1 construct: All protein kinases were of human origin and encoded full length proteins, unless indicated otherwise; made in house
T1 sequence (Q8IWQ3 1-736): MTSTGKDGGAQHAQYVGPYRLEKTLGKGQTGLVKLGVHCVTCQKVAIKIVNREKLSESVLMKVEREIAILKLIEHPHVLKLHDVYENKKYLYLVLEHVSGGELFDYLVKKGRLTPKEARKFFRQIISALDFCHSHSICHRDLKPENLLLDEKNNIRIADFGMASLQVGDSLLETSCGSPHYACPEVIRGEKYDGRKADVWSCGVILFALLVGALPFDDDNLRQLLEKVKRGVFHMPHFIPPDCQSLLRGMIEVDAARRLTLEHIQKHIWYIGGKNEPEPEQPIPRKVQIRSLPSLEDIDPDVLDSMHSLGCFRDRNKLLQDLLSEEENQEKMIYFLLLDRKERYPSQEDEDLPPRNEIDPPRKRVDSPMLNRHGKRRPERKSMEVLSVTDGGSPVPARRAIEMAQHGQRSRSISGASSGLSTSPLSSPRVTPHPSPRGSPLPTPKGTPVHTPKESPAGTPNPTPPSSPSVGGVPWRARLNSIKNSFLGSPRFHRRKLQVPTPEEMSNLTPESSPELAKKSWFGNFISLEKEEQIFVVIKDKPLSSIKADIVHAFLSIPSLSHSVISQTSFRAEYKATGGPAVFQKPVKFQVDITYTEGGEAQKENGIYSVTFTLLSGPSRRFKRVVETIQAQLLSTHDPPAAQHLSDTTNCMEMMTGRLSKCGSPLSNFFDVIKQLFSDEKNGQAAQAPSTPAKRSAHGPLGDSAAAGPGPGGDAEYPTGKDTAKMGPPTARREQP
Source text: (§1) All protein kinases were of human origin and encoded full length proteins, unless indicated otherwise. They were either expressed as glutathione S-transferase (GST) fusion proteins in Escherichia Coli or as hexahistidine (His6)-tagged proteins in insect Sf21 cells. GST fusion proteins were purified by affinity chromatography on glutathione-Sepharose, and His6-tagged proteins on nickel/nitriloacetate-agarose. The procedures for expressing some of the protein kinases used herein have been detailed previously.^8,9 The following sections outline the DNA vectors synthesised and the procedures used to express and purifying protein kinases that have not been reported previously.
(§2) All assays (25.5 μl) were carried out at room temperature (21° C.) and were linear with respect to time and enzyme concentration under the conditions used. Assays were performed for 30 min using Multidrop Micro reagent dispensers (Thermo Electron Corporation, Waltham, Mass. 02454, USA) in a 96-well format. The concentration of magnesium acetate in the assays was 10 mM and the [γ-33P] ATP (800 cpm/pmol) was used at 5, 20 or 50 μM as indicated, in order to be at or below the Km for ATP for each enzyme. Protein kinases assayed at 5 μM ATP were: —ERK1, ERK8, PKBα, MARK3, Aurora C. Protein kinases assayed at 20 μM ATP were: —JNK1, PDK1, CHK1, CHK2, CDK2 and Aurora B. Protein kinases assayed at 50 μM ATP were: —MNK2, IKKepsilon and TBK1.
(§3) The assays were initiated with MgATP, stopped by addition of 5 μl of 0.5 M orthophosphoric acid and spotted on to P81 filterplates using a unifilter harvester (PerkinElmer, Boston, Mass. 02118, USA). The IC50 values of inhibitors were determined after carrying out assays at 10 different concentrations of each compound.
(§4) Unless stated otherwise, enzymes were diluted in 50 mM Tris/HCl pH 7.5, 0.1 mM EGTA, 1 mg/ml BSA, 0.1% (v/v) 2-mercaptoethanol and assayed in 50 mM Tris/HCl pH 7.5, 0.1 mM EGTA, 0.1% (v/v) 2-mercaptoethanol.

SYK = target: T2, SYK (Homo sapiens, UniProt P43405); assay: SYK protein kinase assay; assay type: biochemical; settings: for remaining activity at 10 µM: 10 μM compound; for residual kinase activity SYK: 1 μm compound; for remaining activity at 1 µM: 1 μM compound
T2 construct: All protein kinases were of human origin and encoded full length proteins, unless indicated otherwise; made in house
Source text: as §1, §2, §3, §4

JNK2 = target: T3, JNK2 (Homo sapiens, UniProt P45984); assay: JNK2 protein kinase assay; assay type: biochemical; settings: for remaining activity at 10 µM: 10 μM compound; for residual kinase activity JNK2: 1 μm compound; for remaining activity at 1 µM: 1 μM compound
T3 construct: All protein kinases were of human origin and encoded full length proteins, unless indicated otherwise; made in house
T3 sequence (P45984 whole entry): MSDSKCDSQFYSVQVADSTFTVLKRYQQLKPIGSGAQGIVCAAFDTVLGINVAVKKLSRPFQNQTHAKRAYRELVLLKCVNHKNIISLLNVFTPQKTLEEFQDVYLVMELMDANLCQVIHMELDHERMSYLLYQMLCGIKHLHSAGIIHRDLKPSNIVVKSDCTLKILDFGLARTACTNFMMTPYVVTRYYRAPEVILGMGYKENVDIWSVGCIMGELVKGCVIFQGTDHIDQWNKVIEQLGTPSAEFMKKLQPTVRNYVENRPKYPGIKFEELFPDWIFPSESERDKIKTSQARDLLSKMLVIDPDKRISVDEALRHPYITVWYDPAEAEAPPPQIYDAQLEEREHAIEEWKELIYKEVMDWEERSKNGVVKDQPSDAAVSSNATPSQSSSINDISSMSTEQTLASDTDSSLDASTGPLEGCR
Source text: as §1
In order to produce activated forms of Aurora B and Aurora C, insect Sf21 cells were incubated for 1 h with the protein phosphatase inhibitor okadaic acid (50 nM). JNK isoforms were activated with MKK4 and MKK7, MNK2 with p38α MAPkinase; PKBα, PKBβ, with PDK1, and ERK1 with MKK1. To activate CDK2, bacterial pellets expressing cyclin A2 and CDK2 were mixed together, lyse and purified on glutathione Sepharose. The GST-tags were removed by cleavage with PreScission protease and the CDK2-cyclin A2 complex purified by chromatography on SP-Sepharose. It was then activated with CAK1/CDK7 followed by chromatography on nickel-nitrilotriacetate agarose to remove CAK1/CDK7, which binds to this column by virtue of its C-terminal His6 tag. All the other protein kinases were active as expressed.
as §2, §3, §4

ROCK 2 = ROCK 2 protein kinase assay; assay type: biochemical, human; settings: for residual kinase activity: ROCK 2
Source text: as §1, §2, §3, §4

PKCa = target: T4, PKCa (Homo sapiens, UniProt P17252); assay: PKCa protein kinase assay; assay type: biochemical; settings: for remaining activity at 10 µM: 10 μM compound; for residual kinase activity PKCa: 1 μm compound; for remaining activity at 1 µM: 1 μM compound
T4 construct: All protein kinases were of human origin and encoded full length proteins, unless indicated otherwise; made in house
Source text: as §1, §2, §3, §4

[1] = read-out: residual kinase activity BRSK2
[2] = read-out: residual kinase activity SYK
[3] = read-out: residual kinase activity JNK2
[4] = read-out: residual kinase activity PKCa
[5] = BRSK2, read-out: residual kinase activity
[6] = SYK, read-out: residual kinase activity
[7] = JNK2, read-out: residual kinase activity
[8] = PKCa, read-out: residual kinase activity

O=C(NCCCNc1nc(Nc2cccc(F)c2)ncc1Br)C1CCC1 [Compound A, cyclobutanecarboxylic acid {3-[5-bromo-2-(3-fluoro-phenylamino)-pyrimidin-4-ylamino]-propyl}-amide, reference compound]
remaining activity at 10 µM (BRSK2; [1]): 6%
residual kinase activity BRSK2 (BRSK2): 23%
remaining activity at 10 µM (SYK; [2]): 4%
residual kinase activity SYK (SYK): 25%
remaining activity at 10 µM (JNK2; [3]): 5%
residual kinase activity JNK2 (JNK2): 40%
residual kinase activity ROCK 2 (ROCK 2; 10 μM compound): 11%
residual kinase activity ROCK 2 (ROCK 2; 1 μm compound): 33%
remaining activity at 10 µM (PKCa; [4]): 49%
residual kinase activity PKCa (PKCa): 94%

O=C(NCCCNc1nc(Nc2cccc(F)c2)ncc1C1CC1)C1CCC1 [Example 23, Cyclobutanecarboxylic acid {3-[5-cyclopropyl-2-(3-fluoro-phenylamino)-pyrimidin-4-ylamino]-propyl}-amide]
remaining activity at 10 µM (BRSK2; [1]): 26%
residual kinase activity BRSK2 (BRSK2): 64%
remaining activity at 1 µM (BRSK2; [5]): 64%
remaining activity at 10 µM (BRSK2; [5]): 26%
remaining activity at 10 µM (SYK; [2]): 46%
residual kinase activity SYK (SYK): 87%
remaining activity at 1 µM (SYK; [6]): 87%
remaining activity at 10 µM (SYK; [6]): 46%
remaining activity at 10 µM (JNK2; [3]): 55%
residual kinase activity JNK2 (JNK2): 78%
remaining activity at 1 µM (JNK2; [7]): 78%
remaining activity at 10 µM (JNK2; [7]): 55%
residual kinase activity ROCK 2 (ROCK 2; 10 μM compound): 40%
residual kinase activity ROCK 2 (ROCK 2; 1 μm compound): 77%
residual kinase activity (ROCK 2; 1 μM compound): 77%
residual kinase activity (ROCK 2; 10 μM compound): 40%
remaining activity at 10 µM (PKCa; [4]): 87%
residual kinase activity PKCa (PKCa): 81%
remaining activity at 1 µM (PKCa; [8]): 81%
remaining activity at 10 µM (PKCa; [8]): 87%

O=C(NCCCNc1nc(Nc2cccc(N3CCCC3=O)c2)ncc1C1CC1)c1cccs1 [Example 47, Thiophene-2-carboxylic acid (3-{5-cyclopropyl-2-[3-(2-oxo-pyrrolidin-1-yl)-phenylamino]-pyrimidin-4-ylamino}-propyl)-amide. Hydrochloride salt]
remaining activity at 1 µM (BRSK2; [5]): 91%
remaining activity at 10 µM (BRSK2; [5]): 36%
remaining activity at 1 µM (SYK; [6]): 82%
remaining activity at 10 µM (SYK; [6]): 49%
remaining activity at 1 µM (JNK2; [7]): 98%
remaining activity at 10 µM (JNK2; [7]): 89%
residual kinase activity (ROCK 2; 1 μM compound): 85%
residual kinase activity (ROCK 2; 10 μM compound): 48%
remaining activity at 1 µM (PKCa; [8]): 83%
remaining activity at 10 µM (PKCa; [8]): 69%

O=C(NCCCNc1nc(Nc2cccnc2)ncc1C1CC1)c1cccs1 [Example 50, Thiophene-2-carboxylic acid {3-[5-cyclopropyl-2-(pyridin-3-ylamino)-pyrimidin-4-ylamino]-propyl}-amide]
remaining activity at 1 µM (BRSK2; [5]): 87%
remaining activity at 10 µM (BRSK2; [5]): 42%
remaining activity at 1 µM (SYK; [6]): 83%
remaining activity at 10 µM (SYK; [6]): 60%
remaining activity at 1 µM (JNK2; [7]): 102%
remaining activity at 10 µM (JNK2; [7]): 66%
residual kinase activity (ROCK 2; 1 μM compound): 77%
residual kinase activity (ROCK 2; 10 μM compound): 51%
remaining activity at 1 µM (PKCa; [8]): 85%
remaining activity at 10 µM (PKCa; [8]): 70%
